Source: patent US5126258A (priority 1988, dated 1992)
“Also recorded” adds a separate entry of the source.

What was measured:
[1] = test system: monoclonal antibody P3 6D4; assay: Ester hydrolysis by monoclonal antibody P3 6D4, HPLC; format: biochemical, mouse; settings: pH 8.0
Protocol: FIG. 3 illustrates the rate of hydrolysis of a carboxylic ester (Compound 7) determined by HPLC under the conditions described in Table 1 (50 mM phosphate buffer at pH 8.0 and 23 degrees C). ( ) Uncatalyzed (background)rate of hydrolysis. (.quadrature.) Effect of 0.5 micromolar non-specific monoclonal IgG. ( ) 0.1 Micromolar anti-Compound 4 monoclonal antibody from hybridoma P3 6D4. The superimposed curve represents a theoretical exponential decay which fits the data points.
In particular, an exemplary monoclonal receptor was produced by the standard hybridoma technology of Kohler et al., Nature, 256, 495 (1975). Specifically, female 129G1X^+ mice were immunized by intraperitoneal injection with an inoculum of 100 micrograms of conjugate (e.g., Compound 4i bound to KLH) in 300 microliters of a 1:1 mixture of phosphate buffered saline (PBS) pH 7.4 and complete Freund's adjuvant. Two weeks later, the mice were again injected in a like manner with 50 micrograms of the foregoing conjugate in 300 microliters of a 1:1 mixture of PBS (pH 7.4) and 10 mg/ml alum. After an additional eight weeks, the mice were immunized intravenously with 50 micrograms of the conjugate in 200 microliters of PBS (pH 7.4). The spleens were removed from the mice 4 days later, and the spleen cells were fused to myeloma cells.
(§1) The lack of spectroscopic distinction between such esters and their hydrolysis products recommended a chromatographic analysis of the process. Referring to FIG. 3, a mixture of Compound 7 (5 uM) and the monoclonal antibody from hybridoma P3 6D4 (0.1 uM) in phosphate buffer (50 mM, pH 8.0) was analyzed over time by high performance liquid chromatography (HPLC). The accelerated hydrolysis of the ester was apparent from the decrease of its peak and the concurrent increase in two new peaks that correspond with the expected products. Under these conditions, the ester is completely consumed in 60-80 minutes during which time the background rate accounts for about 12 to 16 percent hydrolysis. The chromatographic profile is the same as that produced by treatment with hog liver esterase.
(§2) *Hydrolysis of carboxylic esters by monoclonal antibody (from hybridoma P
(§3) 6D4) and by hog liver esterase (Sigma Chemical Co., St. Louis, MO, EC
(§4) 3.1.1.1) determined by HPLC on an analytical RPC18 column (Vydac 218TP54)
(§5) with isocratic elution [acetonitrile: water plus 0.1 percent
(§6) trifluoroacetic acid; (35:65)] at a flow rate of 1.0 ml/min and the
(§7) detector set at 245 nm. The initial substrate concentration was 5
(§8) micromolar and that the internal standard (acetophenone) was 10 microm
(§9) olar in 50 mM phosphate buffer at pH 8.0. The retention times (minutes)
(§10) were as follows: acetophenone, 5.0; Compound 7, 8.3; Compound 8, 6.7;
(§11) Compound 9, 4.1; Compound 10, 11.1 (40 percent acetonitrile elution);
(§12) Compound 11, 8.2. The antibody concentration was 15 micrograms/ml (0.1
(§13) micromolar) and that of esterase was 5.5 micrograms/ml. The reaction
(§14) mixtures were kept at 25 degrees C. and aliquots were analyzed at
(§15) intervals of 2 to 20 minutes. Three or more determinations were used to
(§16) plot a curve from which the halflife of the reaction is estimated (see

hog liver esterase = format: biochemical; settings: pig, 5 µM, pH 8
Protocol: as §1, §2, §3, §4, §5, §6, §7, §8, §9, §10, §11, §12, §13, §14, §15, §16

[2] = Spontaneous (uncatalyzed, background) hydrolysis; format: physicochemical; settings: spectrophotometric at 245 nm, initial rates at five ester concentrations; figure = k × 10^5
Protocol: The practical range of pH for the assay is limited by the rapid spontaneous rate of hydrolysis of an ester Compound 5 above pH 8.0. Initially, the ester was used at a concentration that was about four-fold greater than that of the protein, and the mixture was incubated at pH 7.2 for 10 minutes. Any change in fluorescence above background was noted.
as §1
^c The rate constants were determined spectrophotometrically (at 245
nm) by measuring initial rates at five concentrations of ester.
^1 Preliminary initial hydrolyses shown as the percentage of admixed
reactant ligand consumed for catalyzed and spontaneous hydrolyses. "--" =
No hydrolysis observed. "NT" = Not tried. All reactions were carried out
at pH 8.0 in a 50 mM phosphate buffer unless otherwise noted. Hydrolytic
percentages were determined by HPLC using a Hitachi model 655A12 liquid
chromatograph with a C18 Vydac 201TP54 column, except as noted below.
Mixtures of acetonitrile a nd water containing 0.1 percent trichloroaceti
acid [28:72-50:50 (v/v)] were used as elutant. Hydrolyses of Compounds 5
and 20 were assayed using fluorescence data.
^5 Spontaneous hydrolytic percentages for the time period indicated.
(§17) Reaction kinetics were studied using three reactant ligands as substrates for monoclonal receptors 37G2 and 22F5. Data from initial rates were consistent with Michaelis-Menten reaction mechanism for a usual enzyme-substrate system. Initial rates were followed using at 271 nm using a U.V.-visible spectorphotometer for Compound 17, and a fluorescence spectrometer for Compounds 5 and 20, using an excitation wavelength of 355 nm and an emission wavelength of 455 nm for both compounds.

P2 50D8 = assay: Catalytic hydrolysis by receptor P2 50D8; format: biochemical, mouse
Protocol: (§18) Two further catalytic monoclonal receptors were similarly prepared by another fusion using Compound 2i linked to an antigenic carrier as immunogen. Those two catalytic receptor molecules and their hybridomas were designated "P2 50D8" and "P2 57G4".
(§19) In one study, twenty-eight monoclonal anti-hapten antibodies to phosphonate 2i from two separate fusion experiments were assayed. […] Antibodies to Compound 4i as hapten were assayed in the same manner. Twelve gamma-globulins were screened as described above. Compound 5 is homologous only in the acyl portion of this larger hapten; however, all but three of these cross-reacted with smaller phosphonate 2 in an ELISA assay as described herein. For two of these there was observed a fluorescence change, occurring in the first 5 minutes of incubation, which corresponds to about 50 percent of that for complete hydrolysis. The background rate of hydrolysis was reestablished after this initial reaction leveled off.

P2 57G4 = assay: Catalytic hydrolysis by receptor P2 57G4; format: biochemical, mouse
Protocol: as §18, §19

[3] = test system: monoclonal receptor P3 6D4; assay: Stoichiometric transacylation reaction of monoclonal receptor P3 6D4 with coumarin ester Compound 5 (fluorescence) and its inhibition/inactivation; format: biochemical, mouse
Protocol: A Perkin-Elmer LS-5 fluorescence spectrometer was operated at a fixed wavelength, using 355 nanometers (nm) for excitation and measuring the emission at 455 nm. A stock solution of the coumarin ester 5 was prepared in dioxane and was diluted to the desired concentrations in Tris-HCl (50 mM, pH 7) or sodium phosphate (50 mM, pH 4-9).
Reactions were run at 23 degrees C and were initiated by the addition of an aliquot of antibody solution (1 mg/ml) to substrate solutions to provide a final protein concentration of 100 nM. Final fluorescence values were determined by hydrolysis of the substrate with pig liver esterase. The observed reaction rate was corrected for spontaneous hydrolysis. Reaction kinetics were studied by measuring initial rates under pseudo-first order conditions. Active protein concentration was extrapolated from fluorescence values at the end of the reaction. The kinetic parameters were obtained by fitting the data to a hyperbolic curve and from double reciprocal plots. Inhibition constants were determined from the Lineweaver-Burk plot data with at least five inhibitor concentrations. All the data were studied by a least squares analysis.
Antibody preparations were inactivated without introducing fluorescent products by the addition of the activated ester (Compound 8) in dioxane to a solution of the IgG (5 mg/ml) in Tris-HCl (50 mM, pH 6.5) at a ratio of 5 moles of the ester (Compound 8) per mole IgG.
Protein modification was performed in an analogous manner, by the addition of a dioxane solution of the reagent at a known concentration to the antibody. The solution was incubated for 30 minutes before filtration through Sephadex G-25. The activity remaining was compared to control samples. Aliquots of IgG (5 mg/ml) inactivated with the ester (Compound 8) were diluted with four volumes of phosphate buffer (50 mM, pH 4-9, at intervals of 1 pH unit). Any pH change was recorded, and the sample was stored at 4 degrees C for 24 hours.
Initially, the ester was used at a concentration that was about four-fold greater than that of the protein, and the mixture was incubated at pH 7.2 for 10 minutes. Any change in fluorescence above background was noted.
The termination of the reaction is noted by the return of the rate of fluorescence increase to the background level.

Monoclonal Receptor 37G2 = assay: Kinetics of hydrolysis by receptor 37G2; format: biochemical, mouse; settings: inhibitor Compound 12i (100 and 300 nM), substrate Compound 17; figure = Ki × 10^7
Excerpt: as §17
Lineweaver-Burke plots for the catalyzed hydrolysis of Compounds 17, 5 and 20 obtained in the presence and absence of Compound 12i as inhibitor were prepared as discussed for FIG. 4. In particular, Compound 17 was present at concentrations of 1-16 uM with inhibitor concentrations of 100 and 300 nanomolar (nM). Compound 5 was present at concentrations of 1-10 uM with inhibitor concentrations of 100 and 200 nM. Compound 20 was present at concentrations of 2-20 uM with inhibitor concentrations of 25 and 100 nM. […]
(§20) 50 mM phosphate buffer at a pH value of 8.0. The reactant ligand was
(§21) dissolved in dioxane and admixed in the amounts discussed above. Two
(§22) milliliters of reaction solution were utilized as was a dioxane
concentration of 2 percent by volume. Assays with Compound 17 as reac tan
ligand utilized 500 nanomolar receptor (based on a molecular weight of
150,000 daltons) in the above buffer, using the reactant ligand dissolved
in dioxane and a total dioxane concentration of 2 percent by volume.

Monoclonal Receptor 22F5 = assay: Kinetics of hydrolysis by receptor 22F5; format: biochemical, mouse; settings: figure = Ki × 10^7
Excerpt: as §17
Lineweaver-Burke plots for the catalyzed hydrolysis of Compounds 17, 5 and 20 obtained in the presence and absence of Compound 12i as inhibitor were prepared as discussed for FIG. 4. In particular, Compound 17 was present at concentrations of 1-16 uM with inhibitor concentrations of 100 and 300 nanomolar (nM). Compound 5 was present at concentrations of 1-10 uM with inhibitor concentrations of 100 and 200 nM. Compound 20 was present at concentrations of 2-20 uM with inhibitor concentrations of 25 and 100 nM.
*Fluorescence assays using Compounds 20 and 5 were carried out in a
PerkinElmer fluorescence spectrophotometer (moded LS5; Oakbrook, IL) usin
200 nanomolar receptor (based on a molecular weight of 150,000 daltons) i
as §20, §21, §22
concentration of 2 percent by volume. […]

Row | SMILES | t1/2 Esterase (hog liver esterase) [min] | catalytic hydrolysis by P2 50D8 (P2 50D8) | catalytic hydrolysis by P2 57G4 (P2 57G4) | accelerated hydrolysis by P3 6D4 (substrate acceptance) [1] | kuncat [2] [s⁻¹] | further results
1 | COC(=O)c1cccc(C(=O)NCc2cc(NC(=O)CCCCC(=O)ON3C(=O)CCC3=O)ccc2OP(=O)(O)Cc2ccc(NC(=O)C(F)(F)F)cc2)n1 [Compound 4i] | – | – | – | – | – | hydrolytic stability (NHS group) (Chemical stability; store at zero degrees C in a dessicator): prone to hydrolysis
2 | CC(=O)Nc1ccc(CC(=O)Oc2ccc(NC(C)=O)cc2)cc1 [Compound 9] | 4 | capable of catalytically hydrolyzing | capable of catalytically hydrolyzing | not accepted as substrates | 25000 | –
3 | O=C(Cc1ccc(NC(=O)C(F)(F)F)cc1)Oc1ccccc1 [Compound 10] | 2 | – | – | no effect on the hydrolytic rate; also recorded: not catalyzed | – | stoichiometric antibody reaction (release of alcohol) [3]: Neither is the stoichiometric reaction apparent
4 | CC(=O)Nc1ccc(CC(=O)Oc2ccc(NC(=O)C(F)(F)F)cc2)cc1 [Compound 11] | 5 | capable of catalytically hydrolyzing | capable of catalytically hydrolyzing | not manifested by the accelerated hydrolysis | 610000 | –
5 | Cc1ccc2cccc(NP(=O)(O)Cc3ccc(NC(=O)C(F)(F)F)cc3)c2n1 [Compound 12i] | – | – | – | – | – | Ki (Monoclonal Receptor 37G2): 140 nM; Ki (Monoclonal Receptor 22F5; inhibitor Compound 12i (25 and 100 nM), substrate Compound 20): 70 nM; Ki (Monoclonal Receptor 22F5; inhibitor Compound 12i (100 and 200 nM), substrate Compound 5): 110 nM; stability (Chemical stability; pH 3.5-7.3, room temperature): at least 11 days
6 | Cc1ccc2cccc(NP(=O)(O)Cc3ccc(NC(=O)CCCC(=O)ON4C(=O)CCC4=O)cc3)c2n1 [Compound 13] | – | – | – | – | – | decomposition (Chemical stability; pH 3.5 and 6.2): No signs of decomposition; stability at zero degrees C (Chemical stability; zero degrees C, over 5 days): stable
